From US7759373B2, “Large conductance calcium-activated K channel opener” (Mitsubishi Tanabe Pharma Corporation, priority 2001, dated 2010)

Test system: rhythmic bladder contractions induced by substance P
Experiment: Inhibitory effect on the rhythmic bladder contractions induced by substance P in anesthetized rats
Type: in vivo, rat
Details: time during which frequency of rhythmic contraction was completely inhibited, 0.25 mg/kg of the compound, substance P infusion
Experimental: Inhibitory effect on the rhythmic bladder contractions induced by substance P in anesthetized rats
For the experiments, Sprague-Dawley female rats (9 to 12 weeks old) weighing between 200 to 300 g were used. After urethane anesthetization (subcutaneously administered with a dose of 1.2 g/kg), cannulae were placed in both right and left femoral veins. One intravenous catheter was used for administration of compounds, and the other was for the substance P (0.33 μg/kg/min) infusion. We also cannulated into ureter to pass urine. Polyethylene catheters were inserted into carotid artery for continuous monitoring of arterial blood pressure and heart rate. For continuous infusion, transurethral bladder catheter was inserted into the bladder through the urethra and tied in place by a ligature around the urethral orifice. One end of the catheter was attached to a pressure transducer in order to measure intravesical pressure. The other end of the catheter was used for infusion of saline into the bladder. After stabilization of blood pressure and heart rate and after the bladder was emptied, cystometry was performed by filling the bladder slowly with about 0.6 ml of saline. After about 10 minutes, intravenous infusion of substance P (0.33 μg/kg/min) was started for stabilization of the micturition reflex. Compounds were administered after stable rhythmic bladder contraction was obtained over 15 minutes. All compounds were dissolved or suspended in saline containing 0.5% Tween 80 for intravenous administration (0.1 ml/kg).
A 100% inhibition time (minute) of the selected compounds of the present invention is shown in the following Table 65 with a rank of A, B or C. These ranges are as mentioned below. A≧20>B≧10>C (minute)

| Compound | 100% inhibition time range |
| --- | --- |
| CCc1nc(-c2ccc(F)cc2)[nH]c1-c1ccc(C)nc1 [Preparation example 47] | B (A≧20>B≧10>C (minute)) |
| COCc1nc(-c2ccc(C#N)cc2)[nH]c1-c1cccnc1 [Preparation example 125] | C (A≧20>B≧10>C (minute)) |
| COc1cc(-c2nc(CC(=O)O)c(-c3ccc(Cl)s3)o2)ccc1O [Preparation Example 289] | B (A≧20>B≧10>C (minute)) |
| CN(C)c1ncc(-c2nc(-c3cccs3)c(CC(=O)O)o2)cn1 [Preparation Example 505] | B (A≧20>B≧10>C (minute)) |
| COCc1nc(-c2ccc(C#N)cc2)[nH]c1-c1ccccc1 [Preparation example 124] | B (A≧20>B≧10>C (minute)) |
| O=C(O)Cc1nc(-c2ccc3c(c2)CCCO3)oc1-c1ccsc1 [Preparation Example 443] | C (A≧20>B≧10>C (minute)) |
| CCN(CC)C(=O)Cc1nc(-c2ccc(F)cc2)oc1-c1ccsc1 [Preparation Example 617] | B (A≧20>B≧10>C (minute)) |
| Cc1ccc2sc(-c3nc(CC(=O)O)c(-c4ccc(Cl)s4)o3)cc2c1 [Preparation Example 450] | B (A≧20>B≧10>C (minute)) |
| O=C(O)Cc1nc(-c2ccc(F)cc2)oc1-c1ccco1 [Preparation Example 270] | B (A≧20>B≧10>C (minute)) |
| CN(C)c1ccc(-c2nc(-c3ccc(Cl)s3)c(CC(=O)O)s2)cc1 [Preparation Example 589] | A (A≧20>B≧10>C (minute)) |
| CCc1nc(-c2ccc(C)nc2)[nH]c1-c1ccccc1 [Preparation example 28] | B (A≧20>B≧10>C (minute)) |
| COc1ccc(-c2oc(-c3ccc(F)cc3)nc2CC(=O)O)cc1OC [Preparation Example 160] | C (A≧20>B≧10>C (minute)) |
| CCOC(=O)Cc1nc(-c2ccc(F)cc2)oc1-c1ccccc1 [Preparation Example 296, ethyl 2-(4-fluoro-phenyl)-5-phenyloxazol-4-yl acetate] | C (A≧20>B≧10>C (minute)) |
| CN(C)c1ncc(-c2nc(-c3ccc(Cl)cc3)c(CC(=O)O)o2)cn1 [Preparation Example 513] | C (A≧20>B≧10>C (minute)) |
| CC(O)c1ccc(-c2oc(-c3ccc(F)cc3)nc2CC(=O)O)s1 (stereo not drawn) [Preparation Example 234] | C (A≧20>B≧10>C (minute)) |
| CCc1[nH]c(-c2cc(Cl)sc2S(N)(=O)=O)nc1-c1cccnc1.Cl.Cl [Preparation example 144, 2-(5-Chloro-2-sulfamoylthiophen-3-yl)-5-ethyl-4-(3-pyridyl) imidazole dihydrochloride] | C (A≧20>B≧10>C (minute)) |
| N#CCCc1nc(-c2ccc(F)cc2)oc1-c1cccs1 [Preparation Example 337, 4-(2-cyanoethyl)-2-(4-fluorophenyl)-5-(2-thienyl)oxazole] | C (A≧20>B≧10>C (minute)) |
| CCc1nc(-c2ccc(F)cc2)oc1-c1cccnc1 [Preparation Example 532] | C (A≧20>B≧10>C (minute)) |
| Cl.O=C(O)Cc1nc(-c2ccc(F)cc2)oc1-c1cccnc1 [Preparation Example 484, 2-(4-fluoro-phenyl)-5-(3-pyridyl)oxazol-4-yl acetic acid hydrochloride] | B (A≧20>B≧10>C (minute)) |
| O=C(O)Cc1sc(-c2ccc(Cl)cc2)nc1-c1ccc(Cl)s1 [Preparation Example 588] | C (A≧20>B≧10>C (minute)) |

| Compound | 100% inhibition time range |
| --- | --- |
| O=C(Cc1nc(-c2ccc(F)cc2)oc1-c1ccsc1)Nc1cccnc1 [Preparation Example 376] | C (A≧20>B≧10>C (minute)) |
| O=C(O)Cc1nc(-c2ccc(F)cc2)oc1-c1cccc(O)c1 [Preparation Example 258] | C (A≧20>B≧10>C (minute)) |
| COc1ccc(-c2nc(-c3ccc(Cl)s3)c(CC(=O)O)s2)cn1 [Preparation Example 591] | B (A≧20>B≧10>C (minute)) |
| O=C(O)Cc1sc(-c2ccc(F)cc2)nc1-c1ccc(Cl)s1 [Preparation Example 568] | A (A≧20>B≧10>C (minute)) |
| O=C(O)Cc1nc(-c2cc3ccccc3cn2)oc1-c1cccs1 [Preparation Example 276] | C (A≧20>B≧10>C (minute)) |
| CS(=O)(=O)Nc1nc(-c2ccc(F)cc2)oc1-c1ccsc1.[Na] [Preparation Example 380, N-[2-(4-fluorophenyl)-5-(3-thienyl)oxazol-4-yl]methanesulfonamide sodium salt] | C (A≧20>B≧10>C (minute)) |
| 2-(4-fluorophenyl)-5-(2-thienyl)oxazole-4-yl propionic acid sodium salt [Preparation Example 338] | C (A≧20>B≧10>C (minute)) |
| O=C(O)Cc1nc(-c2cc3ccccc3[nH]2)oc1-c1ccc(Cl)s1 [Preparation Example 466] | B (A≧20>B≧10>C (minute)) |
| O=C(O)Cc1nc(-c2cscn2)oc1-c1ccc(Cl)s1 [Preparation Example 274] | B (A≧20>B≧10>C (minute)) |
| CC(C(=O)O)c1nc(-c2ccc(F)cc2)oc1-c1ccsc1 (stereo not drawn) [Preparation Example 613] | C (A≧20>B≧10>C (minute)) |
| CN(C)c1ccc(-c2nc(-c3ccc(Cl)c(F)c3)c(CC(=O)O)s2)cn1 [Preparation Example 585] | C (A≧20>B≧10>C (minute)) |
| COCc1nc(-c2ccc(F)cc2)[nH]c1-c1ccsc1 [Preparation example 122] | B (A≧20>B≧10>C (minute)) |
| CC(C)c1ccc(-c2nc(CC(=O)O)c(-c3cccs3)o2)cc1 [Preparation Example 291] | C (A≧20>B≧10>C (minute)) |
| N#Cc1cccc(-c2oc(-c3ccc(F)cc3)nc2CC(=O)O)c1 [Preparation Example 522] | B (A≧20>B≧10>C (minute)) |
| COc1ccc(-c2nc(CC(=O)O)c(-c3ccc(Cl)s3)o2)cn1 [Preparation Example 368] | B (A≧20>B≧10>C (minute)) |
| CN(C)c1cnc(-c2nc(CC(=O)O)c(-c3ccc(Cl)s3)o2)cn1 [Preparation Example 628] | C (A≧20>B≧10>C (minute)) |
| CCc1nc(-c2ccc(F)cc2)[nH]c1-c1cncnc1 [Preparation example 85] | C (A≧20>B≧10>C (minute)) |
| CCc1[nH]c(-c2ccc(F)cc2)nc1C(=O)c1ccccn1 [Preparation example 72, 5-ethyl-2-(4-fluorophenyl)-imidazol-4-yl-(2-pyridyl) ketone] | C (A≧20>B≧10>C (minute)) |
| OCc1[nH]c(-c2csc(Cl)c2)nc1-c1cccnc1 [Preparation Example 482, 2-(5-chloro-thiophen-3-yl)-5-hydroxymethyl-4-(3-pyridyl)imidazole] | C (A≧20>B≧10>C (minute)) |
